Results on 34 compounds are retold here after PubChem BioAssay AID463199 (Broad Institute, 2010).

Calls of active or inactive are those of the source.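 Rule for the calls: active = AC50, the dose giving half-maximal effect, exceeds a fixed cutoff for a compound that rescues yeast growth under heat; inactive = the rest, inconclusive results apart.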

The test system of this assay is S. cerevisiae Burl-1 ts mutant growth, BacTiter-Glo, 38.5C 24 h. The assay can be described thus: restored growth of temperature-sensitive Burl-1 yeast – whole organism, S. cerevisiae, Burl-1 ts mutant, luminescence, counter-screen for SUMOylation pathway inhibitor project, dose response (AID 463199).
In general, AC50 refers to the concentration at which the activity in the assay is half-maximal. For `O=C(O)C1CCCN1C(=O)c1cncc(Br)c1` (centres undefined), the AC50 is > 42 µM (inactive).

As to `O=C(COc1ccc([N+](=O)[O-])cc1)Nc1ccc(C(=O)NCc2cccnc2)cc1`, the AC50 is > 42 µM (inactive).

For the compound `Cc1cccc(OCc2nnc(SCC(=O)N3c4ccccc4CC3C)n2C)c1C` (centres undefined), the AC50 was > 42 µM (inactive).

In the case of `Cc1ccc(-c2nc(-c3cccnc3)sc2CC(=O)O)cc1`, the AC50 is > 42 µM (inactive).

With `CN(C(=S)NC1=CCS(=O)(=O)C1)C1CCCCC1`, the AC50 was > 42 µM (inactive).

Regarding `Cc1cc(C)c2c(=O)[nH]cnc2n1`, the AC50 is > 42 µM (inactive).

For the compound `Cc1ccc(S(=O)(=O)N2[C@@H](c3ccc(Br)cc3)C(C(=O)O)=C[C@H]2CC2CCCC2)cc1`, the AC50 was > 42 µM (inactive).

In the case of `CCS(=O)c1ccccc1C(=O)O` (centres undefined), the AC50 is > 42 µM (inactive).

As to `CCn1nccc1C(=O)Nc1nccs1`, the AC50 was > 42 µM (inactive).

Regarding `CCCCCC(=O)NNC1=NCC(Cc2cccc(Cl)c2)S1` (centres undefined), the AC50 was > 42 µM (inactive).

Turning to `COc1cc2c(cc1OC)C(c1ccccc1[N+](=O)[O-])N(C(C)=O)CC2` (centres undefined), the AC50 was > 42 µM (inactive).

As for `CSCCc1nc(SCC(=O)Nc2nnc(C)s2)[nH]c1C`, the AC50 is > 42 µM (inactive).

Take `CC(=O)N(C(C)=O)c1c(C#N)c(C)n(-c2ccccc2)c1C(=O)c1ccccc1`: the AC50 is > 42 µM (inactive).

Turning to `Cc1cc(NC(=O)CCC(=O)N(c2cccnc2)C(C(=O)NC2CCCC2)c2ccccc2)no1` (centres undefined), the AC50 was > 42 µM (inactive).

For the compound `O=Cc1ccccc1OCCN1CCCC1=O`, the AC50 was > 42 µM (inactive).

With `O=C(c1cc(N2C(=O)C3C4CCC(C4)C3C2=O)ccc1Cl)N1CCN(c2ccccc2)CC1` (centres undefined), the AC50 is > 42 µM (inactive).

For the compound `COc1ccc(CN2CCNC(=O)C2CC(=O)NCc2cn3ccc(C)cc3n2)c(OC)c1` (centres undefined), the AC50 is > 42 µM (inactive).

For `O=C(NC(=S)Nc1ccccc1N1CCCC1)c1ccc([N+](=O)[O-])cc1`, the AC50 is > 42 µM (inactive).

Turning to `COC(=O)c1ccc(CSc2nnnn2-c2ccccc2)o1`, the AC50 is > 42 µM (inactive).

Take `CC(=O)Nc1ccc(S(=O)(=O)Nc2ccc3c(c2)C(=O)OC3)cc1`: the AC50 is > 42 µM (inactive).

For the compound `Cc1cnc(C(=O)OCC(=O)Nc2ccc(C)c(S(=O)(=O)N(C)C)c2)cn1`, the AC50 is > 42 µM (inactive).

`COc1cc2c(cc1OC)C(c1ccccc1C)CC(=O)N2` (centres undefined): the AC50 is > 42 µM (inactive).

Take `CC(=O)N1CC(=O)Nc2ccc(Cl)cc2C1c1ccccc1` (centres undefined): the AC50 was > 42 µM (inactive).

In the case of `Cn1c(=O)[nH]c(=O)c2c1nc(NCCN)n2CCOc1ccccc1`, the AC50 was > 42 µM (inactive).

`COc1ccc(-c2nc3c(c(SCC(=O)N4CCOCC4)n2)Cc2c(CO)cnc(C)c2O3)cc1`: the AC50 was > 42 µM (inactive).

As for `C[C@H](NC(=O)OC(C)(C)C)C(=O)NCC1CCC(C(=O)N[C@@H](Cc2ccccc2)C(=O)O)CC1` (some centres undefined), the AC50 was > 42 µM (inactive).

For `COc1ccc(C(=O)COc2ccc3ccc(=O)oc3c2)cc1`, the AC50 is > 42 µM (inactive).

On to `CC(=O)N1CCc2cc(S(=O)(=O)CCC(=O)N3CCN(C(=O)c4ccco4)CC3)ccc21`, for which the AC50 is > 42 µM (inactive).

Consider `Cc1ccc(S(=O)(=O)NNC(=O)c2cc3cc4ccccc4nc3s2)cc1`, for which the AC50 is > 42 µM (inactive).

Turning to `Cc1ccc(-n2c(C)cc(/C=N/NC(=O)c3ccncc3)c2C)cc1C`, the AC50 was > 42 µM (inactive).

Regarding `CN(CC(=O)Nc1ccccc1Sc1ccccc1)Cc1nc2ccccc2c(=O)[nH]1`, the AC50 is > 42 µM (inactive).

For the compound `O=C(N=C1SC2CS(=O)(=O)CC2N1c1ccc(F)c(Cl)c1)C1CC1` (centres undefined), the AC50 was > 42 µM (inactive).

With `CCOc1ccccc1N(C(=O)c1snc(C(N)=O)c1N)C(CC)C(=O)NC1CCCC1` (centres undefined), the AC50 is > 42 µM (inactive).

Regarding `CCc1ccccc1NC1c2ccccc2C(=O)N1c1cccnc1` (centres undefined), the AC50 was > 42 µM (inactive).
